This is an account of results in patent US20240199555A1, “APPLICATIONS OF BIASED LIGANDS OF THE SEROTONIN 5-HT7 RECEPTOR FOR THE TREATMENT OF PAIN, MULTIPLE SCLEROSIS AND THE CONTROL OF THERMOREGULATION” (Centre National de la Recherche Scientifique, priority 2021, published 2024).

Read-outs that look alike come from different tables or passages of the source. A value given as a limit tells only on which side of the number the result lay.

One data set has as its target h5-HT7R (Homo sapiens (Human), UniProt P34969). In words: cAMP accumulation (LANCE cAMP detection kit) in HEK-293 cells stably expressing h5-HT7R. The data set is classed as cell-based. How it is done: (B) HEK-293 cells stably expressing h5-HT7R were stimulated with 10 nM of 5-CT and increasing concentrations of products for one hour. After cell lysis, cAMP production was quantified by a LANCE cAMP detection kit (Perkin Elmer). […] Data points represent the means±SEM from three independent experiments performed in triplicate. The EC50 and IC50 for each drug was determined using GraphPad Prism software.
cAMP accumulation was measured with a LANCE™ cAMP detection kit (Perkin-Elmer Life Sciences, Boston, MA, USA). 12 h before experiment cells were starved. Forty-eight h after transfection, cells were harvested in Hank's balanced salt solution (HBSS) containing 5 mM HEPES, 1 mM isobutylmethylxanthine (IBMX) and 0.1% BSA, PH 7.4. After centrifugation (1000×g, 5 min), cells were resuspended in the same buffer (2×10^6 per ml). The ALEXA™ fluor 647 anti-cAMP antibody solution (1 μl) was added to the cell suspension (100 μl) and 5 μl aliquots of the mixture were dispensed in white 384-well microtiter plates (Optiplate, Perkin Elmer). The cells were then stimulated with different drugs. After 1 h incubation at room temperature in the dark, lysis buffer (0.35% Triton X-100, 10 mM CaCl2, 50 mM HEPES) containing LANCE EU-W8044 labeled streptavidin and biotinylated-cAMP was added to the cells (10 μL per well). After 2 h incubation at room temperature in the dark, the plates were read on a VictorV™ microplate reader (Perkin-Elmer Life Sciences). Concentration/response curves were analyzed using Prism 4 software.
HEK-293 fibroblast stably expressing 5-HT7 receptor were used to compare the effect of different 5-HT7R ligands on the classical Gαs-mediated activation of AC pathway. It was decided to evaluate the lead compounds from two series of ligands, Serodolin and MOA-51 (FIG. 1A).

The next data set deals with 5-HT7(b) receptors (Homo sapiens, UniProt P34969). Nature of the data set: BRET between 5-HT7-RLuc and Venus-mini G proteins (G protein recruitment). The class given is cell-based.
Data set [1] concerns mice. In words: Tail immersion test (50° C.). The class given is in vivo. How it is done:
(A) Experimental protocol summary used. (B) Mice were subcutaneously injected with two different doses of the 5-HT7 receptor agonist Serodolin, 1 mg/kg or 5 mg/kg and 10 min later their tail extremity was immersed in water heated to 50 degrees. […] The effect of injections (Serodolin or E55888) was evaluated at TO, 30 min and 60 min corresponding to 10, 40 and 70 min after compound injections. […] Their tail extremity was immersed in water heated to 50 degrees at TO (E) or 30 min later (F) corresponding to 10 and 40 min after agonist injections. […] Statistical analysis was done using Tukey's multiple comparison test.
Tail immersion test. Nociception was assessed with the tail immersion test, 10 min and 40 min after E55888 (5 mg/kg) or Serodolin (5 mg/kg) tail subcutaneous injections, in the water heated to 50° C. Vehicle (20% DMSO, 5% Tween 80 diluted in PBS solution) was used as a control group. These different groups were intraperitoneally injected (+) or not (−) with the 5-HT7R antagonist SB269960 (5 mg/kg) 10 min before the ligand injection. The tail withdrawal latency (s) was measured for each animal.

The subject of data set [2] is mice. Nature of the data set: CFA-induced mechanical hypersensitivity, Von Frey filament test. The data set is classed as in vivo. The settings on record: 5 mg/kg, s.c.
Protocol: Mechanical hypersensitivity was evaluated after CFA intraplantar injection by using the Von Frey test. […] Mechanical hypersensitivity was performed 24 hrs later (pre-treatment) CFA intraplantar injection into the left hind paw (ipsilateral paw). […] The ligand effects (E55888 or Serodolin) were evaluated 30 min and 24 hrs after in the ipsilateral paw. Data are means±SEM of values obtained in 2 independent experiments (n=8 to 10 per group). ****p<0.0001 ***p<0.001 **p<0.01 *p<0.05. Statistical analysis was done using Kruskal Wallis test.
Von Frey filament test. Before inducing peripheral inflammation, each animal was tested on the left hind paw with Von Frey Filament to determine its basal sensibility level. Then, peripheral inflammation was induced by intraplantar injection of Complete Freund's Adjuvant (CFA-10 μL) (F5881, Sigma) in the left hind paw (ipsilateral paw) and mechanical allodynia was measure (pre-treatment). Mice were divided into two groups, one with E55888 (5 mg/kg) and the other with Serodolin (5 mg/kg) subcutaneous injections in the ipsilateral paw. Both in absence (−) or in presence (+) of the 5-HT7R antagonist SB269960 (5 mg/kg), intraperitoneally, 20 min before the agonist injections (8-10 mice per group).
The inventors wanted to evaluate the effect of Serodolin on mechanical hypersensitivity in comparison with E-55888 after CFA injection.
Data set [3] can be described thus: Pharmacokinetic study in plasma and brain. The class given is in vivo, C57BL/6 mice. Particulars: 5 mg/kg, subcutaneous. How it is done: FIG. 20: Pharmacokinetic study of E55888 and Serodolin. Concentration-time profile of E55888 (reference agonist) and Serodolin in plasma (A) and brain (B) following subcutaneous injection of a unique dose 5 mg/kg of each compound in C57BL/6 mice. Data represent the mean concentration±SEM of n=4 each time point.
The pharmacokinetic study was undertaken to evaluate and compare the quantity of Serodolin and E55888 in plasma and brain samples from C57BL/6 mice (Janvier, Le Genest France) at several time points. Seven weeks old C57BL/6 mice (n=4 animals per group) received by subcutaneous injection a unique dose (5 mg/kg) of Serodolin or E55888 (U103013S, Achemblock). Control group received vehicle (solution of 20% DMSO and 5% Tween 80 diluted in NaCl). […] Blank vehicle mouse brains homogenates and plasma were used to established standard curves of Serodolin or E55888. […] Study samples, brains homogenates and plasma, were prepared for protein precipitation by adding 85 μL of acetonitrile+5-CT to 20 μL of samples. LC-HRMS analysis for PK studies were performed on a maXis Q-TOF mass spectrometer (Bruker, Bremen, Germany) coupled to an U3000 RSLC UHPLC system (Dionex, Germering, Germany). Separation was obtained using an Acquity UPLC BEH C18 column (2.1×50 mm; 1.7 μm) (Waters, Saint-Quentin-en-Yvelines, France) thermostated at 40° C. with a gradient of water (solvent A) and acetonitrile (solvent B), both acidified with 0.1% formic acid at 500 μL/min. […] The samples were randomized prior analysis; 1.25 μL were injected for plasma and 8 μL for brains. […] Area were integrated from extracted ion chromatograms (EIC) of [M+H]+ ions using QuantAnalysis 4.4 software (Bruker) with a tolerance of ±0.005 u.
The pharmacokinetics profile of both compounds were evaluated. The inventors used liquid chromatography tandem mass spectrometry (UPLC-MS/MS) method to perform PK study and measure Serodolin vs E55888 levels in vivo.

Chain of h5-HT7R (P34969 1-432): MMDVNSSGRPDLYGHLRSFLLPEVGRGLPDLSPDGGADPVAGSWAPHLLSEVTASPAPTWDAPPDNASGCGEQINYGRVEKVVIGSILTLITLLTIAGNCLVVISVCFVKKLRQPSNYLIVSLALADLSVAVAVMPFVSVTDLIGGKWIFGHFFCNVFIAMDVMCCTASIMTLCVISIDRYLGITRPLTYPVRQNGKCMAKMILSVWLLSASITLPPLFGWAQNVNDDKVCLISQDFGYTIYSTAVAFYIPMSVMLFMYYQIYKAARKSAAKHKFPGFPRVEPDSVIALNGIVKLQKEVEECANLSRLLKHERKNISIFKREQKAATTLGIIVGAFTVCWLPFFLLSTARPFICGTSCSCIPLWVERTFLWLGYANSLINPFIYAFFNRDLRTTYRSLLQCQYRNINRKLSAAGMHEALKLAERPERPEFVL
Chain of 5-HT7(b) receptors (P34969 whole entry, looked up): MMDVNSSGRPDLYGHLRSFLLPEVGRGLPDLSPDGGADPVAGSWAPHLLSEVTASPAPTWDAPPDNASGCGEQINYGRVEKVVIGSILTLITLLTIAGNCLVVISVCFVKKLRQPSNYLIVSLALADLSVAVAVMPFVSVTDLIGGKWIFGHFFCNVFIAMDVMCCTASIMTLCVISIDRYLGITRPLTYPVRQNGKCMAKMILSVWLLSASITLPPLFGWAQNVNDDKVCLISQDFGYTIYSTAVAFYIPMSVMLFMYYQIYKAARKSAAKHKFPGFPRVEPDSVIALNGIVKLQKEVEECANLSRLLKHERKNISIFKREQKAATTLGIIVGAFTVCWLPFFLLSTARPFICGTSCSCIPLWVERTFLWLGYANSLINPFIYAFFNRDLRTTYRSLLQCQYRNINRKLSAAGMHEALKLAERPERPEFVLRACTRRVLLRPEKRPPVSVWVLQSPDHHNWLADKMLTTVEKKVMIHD
Protocol for 5-HT7(b) receptors: For −mGi, mG12 and mGq cells were also transfected with a receptor described as positively coupled to the G protein: Cells expressing the Adenosine 2 receptor A2R, the Histamine3 receptor H3R or the Ghrelin receptor GHSR were stimulated with adenosine, imetit or ghrelin respectively. Ligand mediated BRET changes are expressed as induced BRET changes which were generated by subtracting at each point the signal obtained on cells incubated with PBS (without ligand).
To evaluate Gαs, Gαq, Gαi recruitment, cells were transiently transfected with 5-HT7R(b) C—terminally fused with donor Rluc (5-HT7R-Rluc) and acceptor NESVenus. mGs, or NES-Venus-mGsq or NES-Venus-mGsi (kindly provided by Pr. N. A. Lambert, Augusta University, Augusta, USA) (Ayoub, M. A., Landomiel, F., Gallay, N., Jegot, G., Poupon, A., Crepieux, P., and Reiter, E. (2015) Assessing Gonadotropin Receptor Function by Resonance Energy Transfer-Based Assays. Front Endocrinol (Lausanne) 6, 130; Wan, Q., Okashah, N., Inoue, A., Nehme, R., Carpenter, B., Tate, C. G., and Lambert, N. A. (2018) Mini G protein probes for active G protein-coupled receptors (GPCRs) in live cells. […] Data were plotted and analysed using GraphPad Prism 4 software for Windows (GraphPad Software Inc, San Diego, CA, USA). […]

With `O=c1[nH]c2ccccc2n1CN1CCN(c2ccc(F)cc2)CC1` [Serodolin], the IC50 – broadly, the concentration at which inhibition is half-maximal – at h5-HT7R (10 nM of 5-CT, one hour, read-out: IC50, decrease of the 5-CT induced cAMP accumulation (antagonist)) turned out to be 5 ± 2 nM; on h5-HT7R (tested alone, read-out: IC50, inverse agonist effect on cAMP response) it was 14 nM. In addition, the “inhibition of cAMP production when tested alone (inverse agonist effect)” value on h5-HT7R (tested alone) is given as “around 75%”. In addition, on 5-HT7(b) receptors (mGs BRET), the “Gαs recruitment” value is listed as “behaved as inverse for Gαs recruitment”. The “Gαi, Ga12 or Gαq recruitment” value on 5-HT7(b) receptors (mGsi, mG12, mGsq BRET) was “neither classical (5-CT, SB 269970) nor biased 5-HT7R ligands (Serodolin) were able to induce the Gαi, Ga12 or Gαq recruitment”. Further, the duration of effect with mice [1] (5 mg/kg) was above 70 min. Also, the tail-immersion latencies entry with mice [1] (1 and 5 mg/kg, s.c.) is listed as “significant dose-dependent increase in the tail-immersion latencies”. Besides, the “anti-nociceptive effect in 5-HT7R KO mice” value with mice [1] (5-HT7R KO mice, subcutaneous) is on record as “did not exert any anti-nociceptive effect”. Moreover, in the data set with mice [1] (s.c.), the “onset of effect post administration” value is at most 10 min. Also, the “CFA-induced mechanical hypersensitivity, 30 minutes after administration” value in the data set with mice [2] (30 minutes) is given as “Significantly decreased paw withdrawals thresholds (anti-allodynia)”. The “anti-allodynic effect 24 later” value in the data set with mice [2] (24 hrs) was “still significant”. Also, the “passage of the brain blood barrier” value in data set [3] is on record as “ability to pass the brain blood barrier”. In addition, the “time of maximum of detection” value in data set [3] (both in plasma and brain) lay within 15 to 30 min. Also, the “maximum of detection in brain” value in data set [3] (brain) came out at 0.4 ± 0.8 µg/mL. For the same compound, the “maximum of detection in plasma” value in data set [3] (plasma) amounted to 2.9 ± 0.8 µg/mL. For the same compound, in data set [3] (plasma and brain), the “time after which eliminated / undetectable” value is 240 min.
